Source: patent publication US9708331B2, “Metabotrophic glutamate receptor 5 modulators and methods of use thereof” (SUNOVION PHARMACEUTICALS INC., priority 2011, dated 2017)

Target: mGluR5 (Homo sapiens, UniProt P41594)
Test: mGluR5 PAM EC50 (positive allosteric modulator potency)
Type: cell-based

mGluR5, sequence (P41594 21-1212): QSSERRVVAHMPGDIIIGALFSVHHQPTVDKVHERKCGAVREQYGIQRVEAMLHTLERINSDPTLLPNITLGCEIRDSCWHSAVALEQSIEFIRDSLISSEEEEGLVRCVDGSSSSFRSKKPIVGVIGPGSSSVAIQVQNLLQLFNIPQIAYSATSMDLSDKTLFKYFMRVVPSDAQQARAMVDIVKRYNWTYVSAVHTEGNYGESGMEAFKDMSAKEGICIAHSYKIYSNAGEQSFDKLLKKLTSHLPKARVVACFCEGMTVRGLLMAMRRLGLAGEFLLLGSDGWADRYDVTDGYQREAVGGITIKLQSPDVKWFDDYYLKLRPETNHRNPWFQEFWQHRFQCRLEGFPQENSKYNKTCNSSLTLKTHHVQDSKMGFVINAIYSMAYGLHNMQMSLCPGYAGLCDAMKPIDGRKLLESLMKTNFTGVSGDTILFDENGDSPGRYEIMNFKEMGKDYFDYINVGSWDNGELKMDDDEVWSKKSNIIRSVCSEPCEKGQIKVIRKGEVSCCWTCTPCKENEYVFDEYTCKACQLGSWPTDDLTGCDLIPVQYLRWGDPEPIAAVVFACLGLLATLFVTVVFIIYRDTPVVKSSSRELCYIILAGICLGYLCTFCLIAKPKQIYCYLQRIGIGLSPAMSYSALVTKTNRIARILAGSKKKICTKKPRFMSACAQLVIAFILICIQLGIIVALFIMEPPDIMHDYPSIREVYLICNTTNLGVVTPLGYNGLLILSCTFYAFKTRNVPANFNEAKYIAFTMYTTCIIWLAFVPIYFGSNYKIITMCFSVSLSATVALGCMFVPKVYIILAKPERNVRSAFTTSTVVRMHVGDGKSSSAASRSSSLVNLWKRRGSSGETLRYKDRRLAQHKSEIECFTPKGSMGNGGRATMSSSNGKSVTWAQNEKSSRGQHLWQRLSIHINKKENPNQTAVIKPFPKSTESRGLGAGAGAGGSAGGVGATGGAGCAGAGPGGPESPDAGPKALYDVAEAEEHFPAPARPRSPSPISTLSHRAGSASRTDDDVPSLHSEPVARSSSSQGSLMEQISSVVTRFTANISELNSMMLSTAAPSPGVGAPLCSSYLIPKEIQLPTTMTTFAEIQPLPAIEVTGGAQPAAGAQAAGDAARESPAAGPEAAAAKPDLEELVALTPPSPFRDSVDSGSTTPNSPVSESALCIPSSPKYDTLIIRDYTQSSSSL

EC50 | SMILES
100 to 300 nM | COCC1Cc2nc3cc(C#Cc4ccccn4)ccc3c(=O)n2C1 (single isomer, unassigned) [Example 1.1b]
10 to 30 nM | CC(C)(O)C1Cc2nc3cc(C#Cc4ccccn4)ccc3c(=O)n2C1 (single isomer, unassigned) [Example 1.2a]
300 to 1000 nM | CC(C)(O)C1Cc2nc3cc(C#Cc4ccccn4)ccc3c(=O)n2C1 (single isomer, unassigned) [Example 1.2b]
< 10 nM | CC(C)(F)C1Cc2nc3cc(C#Cc4ccccn4)ccc3c(=O)n2C1 (single isomer, unassigned) [Example 1.3a]
100 to 300 nM | CC(C)(F)C1Cc2nc3cc(C#Cc4ccccn4)ccc3c(=O)n2C1 (single isomer, unassigned) [Example 1.3b]
30 to 100 nM | O=c1c2ccc(C#Cc3ccccn3)cc2nc2n1CC(CF)C2 (single isomer, unassigned) [Example 1.9a]
300 to 1000 nM | O=c1c2ccc(C#Cc3ccccn3)cc2nc2n1CC(CF)C2 (single isomer, unassigned) [Example 1.9b]
< 10 nM | CC1(C)Cn2c(nc3cc(C#Cc4ccccn4)ccc3c2=O)C1F (single isomer, unassigned) [Example 1.11a]
10 to 30 nM | CC1(C)Cn2c(nc3cc(C#Cc4ccccn4)ccc3c2=O)C1F (single isomer, unassigned) [Example 1.11b]
10 to 30 nM | CC1CCn2c(nc3cc(C#Cc4ccccn4)ccc3c2=O)C1 (single isomer, unassigned) [Example 2.1a]
10 to 30 nM | CC1CCc2nc3cc(C#Cc4ccccn4)ccc3c(=O)n2C1 (single isomer, unassigned) [Example 2.2b]
< 10 nM | CC1CCCc2nc3cc(C#Cc4ccccn4)ccc3c(=O)n21 (single isomer, unassigned) [Example 2.3b]
< 10 nM | CC1Cn2c(nc3cc(C#Cc4ccccn4)ccc3c2=O)CO1 (single isomer, unassigned) [Example 2.4b]
30 to 100 nM | CC1Cn2c(nc3cc(C#Cc4ccccn4)ccc3c2=O)CN1C (single isomer, unassigned) [Example 2.5a]
30 to 100 nM | CCC1CCCc2nc3cc(C#Cc4ccccn4)ccc3c(=O)n21 (single isomer, unassigned) [Example 2.7a]
< 10 nM | CCC1CCCc2nc3cc(C#Cc4ccccn4)ccc3c(=O)n21 (single isomer, unassigned) [Example 2.7b]
10 to 30 nM | CC1(F)CCc2nc3cc(C#Cc4ccccn4)ccc3c(=O)n2C1 (single isomer, unassigned) [Example 2.13a]
< 10 nM | O=c1c2ccc(C#Cc3ccccn3)cc2nc2n1CC(C(F)(F)F)CC2 (single isomer, unassigned) [Example 2.14b]
30 to 100 nM | CC1(C)CC(F)c2nc3cc(C#Cc4ccccn4)cnc3c(=O)n2C1 (single isomer, unassigned) [Example 2.15a]

EC50 | SMILES
100 to 300 nM | CC1CCc2nc3cc(C#Cc4ccccn4)cnc3c(=O)n2C1 (single isomer, unassigned) [Example 2.16b]
300 to 1000 nM | CC1CCn2c(nc3cc(C#Cc4ccccn4)cnc3c2=O)C1 (single isomer, unassigned) [Example 2.17b]
100 to 300 nM | CCC1CCc2nc3cc(C#Cc4ccccn4)cnc3c(=O)n2C1 (single isomer, unassigned) [Example 2.22b]
10 to 30 nM | CCC1CCn2c(nc3cc(C#Cc4ccccn4)cnc3c2=O)C1 (single isomer, unassigned) [Example 2.22c]
30 to 100 nM | O=c1c2ccc(C#Cc3ccccn3)cc2nc2n1CCC(F)CC2 (single isomer, unassigned) [Example 3.1a]
300 to 1000 nM | O=c1c2ccc(C#Cc3ccccn3)cc2nc2n1CCC(O)CC2 (single isomer, unassigned) [Example 3.2a]
30 to 100 nM | O=c1c2ccc(C#Cc3ccccn3)cc2nc2n1CCC(O)CC2 (single isomer, unassigned) [Example 3.2b]
30 to 100 nM | O=c1c2ccc(C#Cc3ccccn3)cc2nc2n1CC1COCC1CC2 (single isomer, unassigned) [Example 3.2d]
30 to 100 nM | O=c1c2ccc(C#Cc3ccccn3)cc2nc2n1CCC1COCC1C2 (single isomer, unassigned) [Example 3.2e]
< 10 nM | O=c1c2ccc(C#Cc3ccccn3)cc2nc2n1CCC1COCC1C2 (single isomer, unassigned) [Example 3.2f]
30 to 100 nM | O=c1c2ccc(C#Cc3ccccn3)cc2nc2n1CCC1(CCCO1)CC2 (single isomer, unassigned) [Example 3.3a]
100 to 300 nM | O=c1c2ccc(C#Cc3ccccn3)cc2nc2n1CCC1(CCCO1)CC2 (single isomer, unassigned) [Example 3.3b]
30 to 100 nM | O=c1c2ncc(C#Cc3ccccn3)cc2nc2n1CCC(C(F)(F)F)CC2 (single isomer, unassigned) [Example 3.9a]
100 to 300 nM | CC1(F)CCc2nc3cc(C#Cc4ccccn4)cnc3c(=O)n2CC1 (single isomer, unassigned) [Example 3.10a]
< 10 nM | CC1CCc2nc3c(F)c(C#Cc4ccccn4)ccc3c(=O)n2CC1 (single isomer, unassigned) [Example 3.12a]
10 to 30 nM | CC1CCc2nc3c(F)c(C#Cc4ccccn4)ccc3c(=O)n2CC1 (single isomer, unassigned) [Example 3.12b]
< 10 nM | CCC1CCc2nc3cc(C#Cc4ccccn4)ccc3c(=O)n2CC1 (single isomer, unassigned) [Example 3.13a]
10 to 30 nM | CCC1CCc2nc3cc(C#Cc4ccccn4)ccc3c(=O)n2CC1 (single isomer, unassigned) [Example 3.13b]
30 to 100 nM | CCC1CCc2nc3cc(C#Cc4ccccn4)cnc3c(=O)n2CC1 (single isomer, unassigned) [Example 3.14a]

EC50 | SMILES
< 10 nM | CC1(F)CCCc2nc3cc(C#Cc4ccccn4)ccc3c(=O)n2C1 (single isomer, unassigned) [Example 3.24a]
30 to 100 nM | CC1Cc2nc3cc(C#Cc4ccccn4)cnc3c(=O)n2CCC1(F)F (single isomer, unassigned) [Example 3.31c]
30 to 100 nM | CC1Cn2c(nc3cc(C#Cc4ccccn4)cnc3c2=O)CCC1(F)F (single isomer, unassigned) [Example 3.31e]
30 to 100 nM | O=c1c2ccc(C#Cc3ccccn3)cc2nc2n1C[C@H]1CCCN21 (stereo in doubt) [Example 1.22]
100 to 300 nM | COCCC1Cc2nc3cc(C#Cc4ccccn4)ccc3c(=O)n2C1 (stereo not drawn) [Example 1.5, 2-(2-methoxyethyl)-6-(pyridin-2-ylethynyl)-2,3-dihydropyrrolo[2,1-b]quinazolin-9(1H)-one]
30 to 100 nM | O=c1c2ccc(C#Cc3ccccn3)cc2nc2n1CC1(COC1)C2 [Example 1.6, 6′-(pyridin-2-ylethynyl)-1′H-spiro[oxetane-3,2′-pyrrolo[2,1-b]quinazolin]-9′(3′H)-one]
< 10 nM | CC1(C)Cc2nc3c(F)c(C#Cc4ccccn4)ccc3c(=O)n2C1 [Example 1.16, 5-fluoro-2,2-dimethyl-6-(pyridin-2-ylethynyl)-2,3-dihydropyrrolo[2,1-b]quinazolin-9(1H)-one]
100 to 300 nM | O=c1c2ncc(C#Cc3ccccn3)cc2nc2n1CC(C(F)(F)F)C2 (stereo not drawn) [Example 1.17, 3-(pyridin-2-ylethynyl)-7-(trifluoromethyl)-7,8-dihydropyrido[3,2-d]pyrrolo[1,2-a]pyrimidin-10(6H)-one]
300 to 1000 nM | COCCC1Cc2nc3cc(C#Cc4ccccn4)cnc3c(=O)n2C1 (stereo not drawn) [Example 1.18, 7-(2-methoxyethyl)-3-(pyridin-2-ylethynyl)-7,8-dihydropyrido[3,2-d]pyrrolo[1,2-a]pyrimidin-10(6H)-one]
100 to 300 nM | CC1(C)Cn2c(nc3cc(C#Cc4ccccn4)cnc3c2=O)C1F (stereo not drawn) [Example 1.20, 6-fluoro-7,7-dimethyl-3-(pyridin-2-ylethynyl)-7,8-dihydropyrido[3,2-d]pyrrolo[1,2-a]pyrimidin-10(6H)-one]
30 to 100 nM | O=c1c2ccc(C#Cc3ccccn3)cc2nc2n1CC1CCCCN21 (stereo not drawn) [Example 1.23, 3-(pyridin-2-ylethynyl)-9,10,10a,11-tetrahydro-7H-pyrido[1′,2′:3,4]imidazo[2,1-b]quinazolin-13(8H)-one]
300 to 1000 nM | C=CC1(O)CCc2nc3cc(C#Cc4ccccn4)ccc3c(=O)n2C1 (stereo not drawn) [Example 2.18, 8-hydroxy-3-(pyridin-2-ylethynyl)-8-vinyl-8,9-dihydro-6H-pyrido[2,1-b]quinazolin-11(7H)-one]
30 to 100 nM | O=c1c2ncc(C#Cc3ccccn3)cc2nc2n1CCC(C(F)(F)F)C2 (stereo not drawn) [Example 2.21, 3-(pyridin-2-ylethynyl)-7-(trifluoromethyl)-8,9-dihydro-6H-dipyrido[1,2-a:3′,2′-d]pyrimidin-11(7H)-one]
< 10 nM | CC1(C)CCn2c(nc3cc(C#Cc4cccc(C#N)n4)ccc3c2=O)C1 [Example 2.24a, 6-((7,7-dimethyl-11-oxo-7,8,9,11-tetrahydro-6H-pyrido[2,1-b]quinazolin-3-yl)ethynyl)picolinonitrile]
10 to 30 nM | CC1(C)CCc2nc3cc(C#Cc4cccc(C#N)n4)ccc3c(=O)n2C1 [Example 2.24b, 6-((8,8-dimethyl-11-oxo-7,8,9,11-tetrahydro-6H-pyrido[2,1-b]quinazolin-3-yl)ethynyl)picolinonitrile]
10 to 30 nM | CC1(C)CCn2c(nc3cc(C#Cc4cc(C#N)ccn4)ccc3c2=O)C1 [Example 2.25a, 2-((7,7-dimethyl-11-oxo-7,8,9,11-tetrahydro-6H-pyrido[2,1-b]quinazolin-3-yl)ethynyl)isonicotinonitrile]
< 10 nM | CC1(C)CCc2nc3cc(C#Cc4cc(C#N)ccn4)ccc3c(=O)n2C1 [Example 2.25b, 2-((8,8-dimethyl-11-oxo-7,8,9,11-tetrahydro-6H-pyrido[2,1-b]quinazolin-3-yl)ethynyl)isonicotinonitrile]
100 to 300 nM | CC1(C)CCC2Cn3c(nc4cc(C#Cc5ccccn5)ccc4c3=O)CN21 (stereo not drawn) [Example 2.26, 3,3-dimethyl-8-(pyridin-2-ylethynyl)-2,3,13,13a-tetrahydro-1H-pyrrolo[1′,2′:4,5] pyrazino[2,1-b]quinazolin-11(5H)-one]
10 to 30 nM | CC1(C)CCn2c(nc3c(F)c(C#Cc4ccccn4)ccc3c2=O)C1 [Example 2.30a, 4-fluoro-7,7-dimethyl-3-(pyridin-2-ylethynyl)-8,9-dihydro-6H-pyrido[2,1-b]quinazolin-11(7H)-one]
